Measured values taken from US20250263370A1 (Tay Therapeutics Limited, priority 2022, published 2025).
“And” between values parts separate entries of the source, which are not always exact repeats. Equal values may be shown once. Read-outs that look alike come from different tables or passages of the source.

Tests used:
[1] = Pharmacokinetics and plasma concentration of Example 101 in Lewis rats after oral administration (CIA study); format: in vivo, Lewis rat; settings: oral
IL-17A = IL-17A levels by ELISA in stimulated human peripheral blood mononuclear cells; format: cell-based; settings: for IC50: Homo sapiens, PBMC
Description: (§1) CD2, CD3, and CD28 antibody-coated beads from the T-cell activation/expansion kit (Miltenyi Biotec) were added to the PBMC at a bead-to-cell ratio of 1:2.
(§2) The mixture of PBMCs and beads were seeded into the wells of the round-bottom 96-well plate at a concentration of 2×10^5 cells/well in a total volume of 200 μL. The cells were cultured for 72 hours at 37° C. and 5% CO2 and then supernatants were collected and IL-17A and IL-22 levels were measured by ELISA. […] The final compound concentration ranged from 30,000 nM to 0.005 nM and the final DMSO concentration per well was 0.3%. PBMCs were seeded at approximately 2×10^5 cells/well in the wells of the 96-well tissue culture plate in a total volume of 190 μL. The plate was incubated for 1 hour at 37° C. and 5% CO2. […] The cells were then cultured for 24 hours at 37° C. and 5% CO2. The supernatant was collected and CXCL10 levels were measured by ELISA.

IL-22 = IL-22 levels by ELISA in stimulated human peripheral blood mononuclear cells; format: cell-based; settings: for IC50: Homo sapiens, PBMC
Description: as §1, §2

[2] = system: collagen-induced arthritis; settings: rat, in vivo
[3] = day 0, 10 mg/kg, per test subject
[4] = day 20, 10 mg/kg, per test subject

In the case of `CNC(=O)c1[nH]c(C(=O)NC2CCC2)cc1O[C@@H](C)c1ccccc1` (stereo in doubt) [Example 101, N^5-cyclobutyl-N^2-methyl-3-(1-phenylethoxy)-1H-pyrrole-2,5-dicarboxamide], the Plasma concentration ([1]; day 0, 10 mg/kg, 12 h, per test subject) is reported as 968 ng/mL and 656 ng/mL, the Plasma concentration ([1]; day 0, 10 mg/kg, 14 h, per test subject) is reported as 525 ng/mL and 469 ng/mL and the AUClast/D ([1]; day 0, 10 mg/kg, Mean) is reported as 751 (ng·h/mL)/(mg/kg). The “AUC—% Extrap—obs” value ([1]; day 0, 10 mg/kg, Mean) was 2.29%, the AUCInf [1, 3] was 16528 ng·h/mL and 15290 ng·h/mL and the AUClast [1, 3] was 16397 ng·h/mL and 14408 ng·h/mL. For the same compound, the AUClast/D [1, 3] was 713 (ng·h/mL)/(mg/kg) and 820 (ng·h/mL)/(mg/kg) and 720 (ng·h/mL)/(mg/kg), the “AUC—% Extrap—obs” value [1, 3] was 0.307% and 0.788% and 5.77% and the Cmax [1, 3] was 2460 ng/mL and 1610 ng/mL. The “MRTInf—obs” value [1, 3] was 8.69 h and 9.50 h, the Tmax [1, 3] was 10.0 h and the Plasma concentration ([1]; day 20, 10 mg/kg, 0.25 h, per test subject) was 1400 ng/mL and 1570 ng/mL. For the same compound, the Plasma concentration ([1]; day 20, 10 mg/kg, 0.5 h, per test subject) was 1550 ng/mL and 1730 ng/mL, the Plasma concentration ([1]; day 20, 10 mg/kg, 1 h, per test subject) was 1730 ng/mL and 1590 ng/mL and the Plasma concentration ([1]; day 20, 10 mg/kg, 2 h, per test subject) was 1260 ng/mL and 1320 ng/mL. For the same compound, the Plasma concentration ([1]; day 20, 10 mg/kg, 4 h, per test subject) was 513 ng/mL and 518 ng/mL, the Plasma concentration ([1]; day 20, 10 mg/kg, 10 h, per test subject) was 1710 ng/mL and 1460 ng/mL and the Plasma concentration ([1]; day 20, 10 mg/kg, 12 h, per test subject) was 461 ng/mL and 498 ng/mL. For the same compound, the AUCInf [1, 4] was 11782 ng·h/mL and 11743 ng·h/mL, the AUClast [1, 4] was 11699 ng·h/mL and 11548 ng·h/mL and the AUClast/D [1, 4] was 421 (ng·h/mL)/(mg/kg) and 585 (ng·h/mL)/(mg/kg) and 577 (ng·h/mL)/(mg/kg). For the same compound, the “AUC—% Extrap—obs” value [1, 4] was 0.982% and 0.700% and 1.65%, the Cmax [1, 4] was 1730 ng/mL and the “MRTInf—obs” value [1, 4] was 6.80 h and 7.09 h. For the same compound, the T1/2 [1, 4] was 2.85 h and 3.54 h, the Tmax [1, 4] was 1.00 h and 0.500 h and the IC50 (IL-17A; Test Subject 1, read-out: IL-17A IC50) was 20.5 nM. The IC50 (IL-17A; Test Subject 2, read-out: IL-17A IC50) was 5.7 nM, the IC50 (IL-17A; Test Subject 3, read-out: IL-17A IC50) was 58.5 nM and the IC50 (IL-17A; mean of test subjects, read-out: IL-17A IC50 Mean) was 28.2 nM. For the same compound, the “effectiveness in reducing inflammatory biomarkers IL-17A, IL-22, and CXCL-10 relative to GSK620” value (IL-17A; human PBMC) was “more effective than GSK620”, the “IC50 for IL-17A relative to GSK620” value (IL-17A; human PBMC, 72 hours) was “substantially lower IC50” and the “Biomarker selectivity (IL-17 vs. CXCL10)” value (IL-17A; human PBMC, from mean IC50) was >1063 Fold. For the same compound, the IC50 (IL-22; Test Subject 1, read-out: IL-22 IC50) was 14.8 nM, the IC50 (IL-22; Test Subject 2, read-out: IL-22 IC50) was 26.9 nM and the IC50 (IL-22; Test Subject 3, read-out: IL-22 IC50) was 21.1 nM. For the same compound, the IC50 (IL-22; mean of test subjects, read-out: IL-22 IC50 Mean) was 20.9 nM, the “IC50 for IL-22 relative to GSK620” value (IL-22; human PBMC, 72 hours) was “substantially lower IC50” and the “Biomarker selectivity (IL-22 vs. CXCL10)” value (IL-22; human PBMC, from mean IC50) was >1433 Fold. The “Clinical Observation” value ([2]; 10 mg/kg) was “Diarrhea”, the “Clinical Observation” value ([2]; 30 mg/kg) was “Diarrhea” and the “animals that gained weight by the end of the study” value (shortened to “animals that gained weight”) ([2]; po, 3 mg/kg) was 7/8. The “body weight over the course of the study” value ([2]; po, 3 mg/kg) was “weight gain over the first 13 days of the study, similar to animals in groups 2 and 4, followed by weight loss over the remaining days”, the “diarrhea over the 21-day period” value ([2]; po, 3 mg/kg) was “did not have diarrhea” and the “increase in body weight, day 21 compared to day 0” value ([2]; po, 3 mg/kg) was 1.7%. The “animals that either gained no weight or lost weight” value ([2]; po, 10 mg/kg) was 5/8, the “animals that gained weight” value ([2]; po, 10 mg/kg) was 3/8 and the “animals that had diarrhea (for a single day) over the 21-day period” value ([2]; po, 10 mg/kg) was “Two different animals”. The “body weight over the course of the study” value ([2]; po, 10 mg/kg) was “modest weight gains over the first 10-11 days of the study, followed by weight loss”, the “body weight relative to CIA + vehicle (group 2)” value ([2]; po, 10 mg/kg) was “significantly decreased relative to group 2 on days 6-7 and 10-18 (p<0.01), and on days 9 and 19-21 (p<0.05)” and the “weight change, day 21 compared to day 0” value ([2]; po, 10 mg/kg) was “approximately 0.5%”. The “animals that either lost weight or gained no weight” value ([2]; po, 30 mg/kg) was 5/8, the “animals that gained weight” value ([2]; po, 30 mg/kg) was 3/8 and the “animals that had diarrhea over the 21-day period” value ([2]; po, 30 mg/kg) was “Four different animals”. For the same compound, the “body weight over the course of the study” value ([2]; po, 30 mg/kg) was “modest weight gains over the first 10-11 days of the study, followed by weight loss”, the “body weight relative to CIA + vehicle (group 2)” value ([2]; po, 30 mg/kg) was “significantly decreased relative to group 2 on days 6-7 and 9-18 (p<0.01), and on days 5 and 19-21 (p<0.05)” and the “weight change, day 21 compared to day 0” value ([2]; po, 30 mg/kg) was “approximately 0.5%”.
